Results as given in patent publication EP4140481A1, “PROTEIN-OLIGOMER BINDING AGENTS AND THERAPEUTIC USES THEREOF” (Galyan Bio, Inc., priority 2021, dated 2023).

Tests used:
C. elegans [1] = details: in vivo
Description: Background: First, acute toxicity assays were performed to test the toxicity of the compounds in adult worms by simulating the actual conditions of the lifespan assay. This accomplished two things. First, in the early stages it determines doses that are acutely toxic to adult worms. Second, over time the worms are scored to rule out doses that despite low initial toxicity, will likely have a negative impact on lifespan. Worms are plated on the exact media and sealed plates that will be used in the lifespan assay and then incubated at 25°C to provide a pilot lifespan that helps catch any other dosing and delivery pitfalls early. Adult worms were monitored in the days immediately following exposure for lethality or any other obvious defects.
Results: Worms were treated with either vehicle control or Compound 4 at concentrations of 50nM, 500nM, 5µM, 50µM, and 500µM. […] The exception is that the worms are incubated at 25°C instead of 20°C to accelerate the aging process. […] Worms were then scored periodically for early deaths. Worms treated with 5 µM Compound 4 or higher concentrations began to decline faster than vehicle control-treated worms. As these doses would be unlikely to increase lifespan in an actual lifespan assay, this placed the upper boundary of effective concentrations between 500 nM and 5 µM (Figure 52 (B)). […]

C. elegans [2] = experiment: C. elegans healthspan, Worm Activity (aggregate movement); assay type: in vivo
From the text: Background: To measure healthspan, active worms were identified using the ALM scanner images from the lifespan assay. The worms' spatial location on the plate was quantified throughout their lifespan to assess healthspan. Worm Activity serves as a proxy for animal health. Changes in spatial distribution of the worms between time points is used to derive aggregate movement for the population over time.
Worm Activity is described by two complementary measurements of aggregate movement: 1) Centroid Distance calculates a geometric center for each individual worm, and then measures the minimum collective distance that a group of worms moved between time points. It achieves measurement of the changes in spatial distribution betweentime-points. 2). Spatial Distribution uses changes in worm contours between time points to measure the changes in the spatial distribution of the worms' bodies. The normalized distribution of these distances in the population provides a measure of how much the group of worms altered their positions and posture on the plate between two time-points. For both of these activity metrics, a plot with higher numbers indicates good health, and all measures are normalized to fall between 0 and 1. All measurements are based on worms that are still alive and moving at the time of quantification. […]

zebrafish larvae = experiment: Motility Zebrafish Model (MPP+ exposure, photomotor assay and sleep)
Description: Six groups were included in each experiment. Immediately after spawning, 40 embryos per group were allocated to a 24-well plate and system water (solvent) was added to all wells. […] MPP+ was prepared immediately prior to incubation and solutions were changed daily. At 120 hpf, drug treatment and MPP+ exposure was ceased and a 3X wash was performed with system water. Larvae were then relocated to 96-well plates for behavioral recording and placed in a separate recording room for 24-hour acclimation. Prior to behavioral recording, wells were fully replenished system water.
Naive group was exposed to solvent only. Vehicle group was exposed to solvent and vehicle corresponding to the vehicle of 20 µM drug solution (0.02% DMSO). MPP+ positive control was exposed to solvent and 500 µM MPP+.
Behavioral data was recorded from 1 p.m. on 6 dpf until shortly after wakening on 7 dpf. The recording consisted of a photomotor assay in which lights switch off and on in 30-minute intervals between 1 p.m. and 6 p.m., producing a consistent photomotor response. […] Upon lights being turned on again, the larvae cease movement followed by a return to baseline. This cycle is repeated five times. Following the last lights-off phase, constant illumination is presented until lights turn off at 10 p.m. for the night. Lights turn on again at 8 a.m. the following day.
Average movement frequency was measured during 30-minute lights-on phases of photomotor assay.
Distance moved (mm) was defined as the average distance moved during 30-minute lights-on phases of photomotor assay.
All data are presented as mean ± standard error of the mean (sem). For analysis of differences between groups, a Kruskal-Wallis one-way ANOVA with Dunn's multiple comparison post hoc test was performed. P < 0.05 was considered statistically significant.

phospho-Tau (Ser396) = target: T1, phospho-Tau (Ser396) (Mus musculus, UniProt P10637); experiment: Phospho-Tau (Ser396) immunocytochemistry in STHdh 7/7 cells; assay type: cell-based; details: for Phospho-Tau (Ser396) reduction: heat shocked 3 hours, versus untreated STHdh 7/7
T1 construct: host or cells: ST HDH Q7/7 mouse striatal cell line
Description: Effect of Compound 4 on Phospho-Tau (Ser396) levels - ST HDH Q7/7 (CH00097, Coriell Institute) striatal derived cell line from a knock in transgenic mouse containing HTT loci with a humanized Exon 1 containing 7 polyglutamine repeats. Immunocytochemistry was conducted as described in Example 33 with the exception that instead of 3B5H10 antibody for staining mHTT, phospho-Tau (Ser396) polyclonal antibody (ThermoFisher, Catalog 44-752G) was used to stain phospho-Tau (Ser396).

R6/2 mice = experiment: Rotarod in R6/2 mice of Huntington's disease; assay type: in vivo; details: for rotarod performance: 33 mg/kg i.p. QD
Description: (§1) Methods ― Total of 20 female and male R6/2 mice and 10 female and male wild-type littermate control mice (WT) were used in the study. The mice were genotyped and the R6/2 mice were divided into different treatment groups based on their litter and baseline body weight. The treatment with Vehicle or Compound 22 (33 mg/kg; 5 ml/kg, i.p. QD) was started at 4 weeks of age after the baseline behavioral tests (Figure 6). Body weights were measured at 3 weeks of age and twice a week until the end of the study.
(§2) The experimental groups were: • Group 1) 10 wild-type mice (mixed gender) treated with Vehicle (5 ml/kg, i.p., QD) starting at 4 weeks of age • Group 2) 10 R6/2 mice (mixed gender) treated with Vehicle (5 ml/kg, i.p., QD) starting at 4 weeks of age • Group 3) 10 R6/2 mice (mixed gender) treated with Compound 22 (33 mg/kg; 5 ml/kg, i.p. QD) starting at 4 weeks of age
(§3) Compound Delivery and Dosing - Treatment with Compound 22 (33 mg/kg; 5 ml/kg, i.p. QD) or Vehicle was started at age week 4 and continued until the 12 weeks of age. The test articles were handled and stored and the dose formulations were prepared according to detailed instructions provided by the Sponsor.
Rotarod - The Rotarod test was perfomed at 4 (pre-treatment baseline), 6, 8 and 10 weeks of age. Each testing day included a training trial of 5 min at 4 RPM on the Rotarod apparatus (AccuScan Instruments, Columbus, USA). 30 minutes later, the animals were tested for 3 consecutive accelerating trials of 6 min with the speed changing from 0 to 40 RPM over 360 seconds and with an inter-trial interval of at least 30 min. The latency to fall from the rod was recorded. Mice remaining on the rod for more than 360 s were removed and their time scored as 360 sec.
[…] littermate control mice (F1 generation) were bred by Charles River Laboratories, Sulzfeld, Germany by mating (F0 generation) WT males (C57BL/6J; systematically re-infused with pedigreed JAX mice, stock 000664) with ovarian transferred (OT) TG females (JAX, stock 006494). After weaning mice were sent from Germany to Charles River, Kuopio, Finland at an age of 3 weeks. Following genotyping and acclimation, the mice were enrolled in the study.

[3] = Body weight in R6/2 mice of Huntington's disease; assay type: in vivo
Description: as §1, §2, §3
Body Weight - Body weight was measured starting at 3 weeks of age before treatment onset and two times per week on the same day (on Monday and Friday) until the end of the study.

T1 sequence (P10637 whole entry): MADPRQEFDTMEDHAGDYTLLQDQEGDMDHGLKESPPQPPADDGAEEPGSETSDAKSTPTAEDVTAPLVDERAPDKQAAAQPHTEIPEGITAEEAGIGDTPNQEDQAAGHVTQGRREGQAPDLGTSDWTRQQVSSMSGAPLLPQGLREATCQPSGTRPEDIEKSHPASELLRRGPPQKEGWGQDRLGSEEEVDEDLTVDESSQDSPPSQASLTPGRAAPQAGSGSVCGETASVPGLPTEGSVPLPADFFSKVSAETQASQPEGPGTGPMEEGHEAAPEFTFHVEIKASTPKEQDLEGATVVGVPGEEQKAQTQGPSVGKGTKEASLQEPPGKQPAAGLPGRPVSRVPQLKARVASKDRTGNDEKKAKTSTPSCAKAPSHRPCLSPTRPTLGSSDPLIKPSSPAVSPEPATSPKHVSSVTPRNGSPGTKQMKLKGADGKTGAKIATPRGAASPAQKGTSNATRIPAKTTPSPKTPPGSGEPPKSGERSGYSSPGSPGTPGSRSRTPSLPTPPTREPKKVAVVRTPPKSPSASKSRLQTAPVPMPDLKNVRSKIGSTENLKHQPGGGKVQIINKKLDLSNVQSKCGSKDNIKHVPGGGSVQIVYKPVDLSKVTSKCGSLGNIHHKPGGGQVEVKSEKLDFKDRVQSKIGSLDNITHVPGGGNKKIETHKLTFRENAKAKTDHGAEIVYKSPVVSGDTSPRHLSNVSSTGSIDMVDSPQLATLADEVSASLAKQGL

SMILES | concentration at which worms began to decline faster than vehicle control-treated worms (C. elegans [1]) | aggregate movement (Centroid Distance, Spatial Distribution) (C. elegans [2]; high dose (2 µM), after a slower start) | aggregate movement (Centroid Distance, Spatial Distribution) (C. elegans [2]; low dose (200 nM), over the lifespan) | movement frequency (zebrafish larvae; 1 µM Compound 4 with 500 µM MPP+ (naïve 40.8)) | distance moved (zebrafish larvae; 1, 10 and 20 µM co-incubated with 500 µM MPP+, compared to MPP+) | sleep parameters (sleep fragmentation, sleep ratio, velocity, wake bout duration, sleep bout duration) (zebrafish larvae; co-incubation with MPP+, between groups) | overall movement during assessment of neuroprotection (zebrafish larvae; concentrations ~10 µM and ~1 µM) | movement frequency (zebrafish larvae; drug treatment groups compared to MPP+) | Phospho-Tau (Ser396) reduction with autophagy inhibitor (phospho-Tau (Ser396); 5 µM, 10 mM ammonium chloride) | Phospho-Tau (Ser396) reduction (phospho-Tau (Ser396); 5 µM) | inhibition at 10 µM (phospho-Tau (Ser396); 10 µM, 10 mM ammonium chloride, read-out: Phospho-Tau (Ser396) reduction with autophagy inhibitor) | Phospho-Tau (Ser396) reduction (phospho-Tau (Ser396); 10 µM) | rotarod performance (R6/2 mice; female R6/2 mice at 10 weeks of age, normalized to 4-week baseline, versus vehicle) | rotarod performance (R6/2 mice; pooled genders or males, versus vehicle treated R6/2 mice) | mean latency to fall (R6/2 mice; 33 mg/kg intraperitoneal once daily, female R6/2 mice at 10 weeks of age (vehicle 55.7 s)) | improvement of latency to fall (R6/2 mice; in comparison to untreated model mice, 10 weeks of age) | body weight ([3]; 33 mg/kg i.p. QD, R6/2 mice 3 to 12 weeks, versus vehicle treated R6/2 mice) | Body weight loss ([3]; female R6/2 mice at week 12, in comparison to untreated female R6/2 mice) | Body weight loss improvement ([3]; male R6/2 mice at week 12, in comparison to untreated male R6/2 mice)
CCc1c(C)[nH]c2ccc(C(=O)NCCN(CC)CC)cc12 [Compound 4, N-(2-(diethylamino)ethyl)-3-ethyl-2-methyl-1H-indole-5-carboxamide] | ≥ 5 µM | even more elevated movement | consistently higher aggregate movement than control | 21.0 movement bouts in 30 minutes | no significant difference | No statistically significant difference | subtle increase in overall movement | no significant difference | could not reduce | 20% | 15.2% | 26.3% | – | – | – | – | – | – | –
Cc1[nH]c2ccc(C(=O)NCCN(C(C)C)C(C)C)cc2c1C [Compound 22] | – | – | – | – | – | – | – | – | – | – | – | – | significantly improved | no significant differences | 108.3 s | 94% | no significant differences | significantly improved | not observed
